≈ marks a conversion by molar mass, not a printed value.

Holding throughout (type): cell-based
Test [1] relates to Enterococcus faecalis CSJ 1212. In words: in vitro antibacterial activity, agar plate dilution method (MIC). As to conditions: CSJ1212, read-out: Antimicrobial spectrum MIC. The procedure: (§1) The in vitro antibacterial activities of the compounds provided by the present invention were tested by a standard method of Chemotherapy Society of Japan, i.e. an agar plate dilution method disclosed in CHEMOTHERAPY Vol. 29, pages 76–79, 1981, and the activities of them on anaerobic bacteria were tested by a method disclosed in CHEMOTHERAPY Vol. 27, 559–590, 1979. The results were shown in terms of the minimum inhibition concentration (MIC, μg/ml) for the growth of the bacteria.

Test [2] relates to Pseudomonas aeruginosa CSJ 1853. The test is described as above. As to conditions: CSJ1853, read-out: Antimicrobial spectrum MIC. As for the experimental part: as §1
For test [3], the system named is Micrococcus luteus KI 3122. Described as above. To be noted: KI3122, read-out: Antimicrobial spectrum MIC. As for the experimental part:
as §1

For test [4], the system named is Klebsiella pneumoniae IID 865. The description is as above. To be noted: IID865, read-out: Antimicrobial spectrum MIC. As for the experimental part:
as §1

Test [5] relates to Staphylococcus aureus IFO 13276. Described as above. To be noted: IFO13276, read-out: Antimicrobial spectrum MIC. As for the experimental part: as §1
The test system of test [6] is Staphylococcus epidermidis IFO 12993. Described as above. As to conditions: IFO12993, read-out: Antimicrobial spectrum MIC. As for the experimental part:
as §1

The subject of test [7] is Enterococcus faecalis RIMD 3116001. The test is described as above. To be noted: RIMD3116001, read-out: Antimicrobial spectrum MIC. As for the experimental part:
as §1

Test [8] concerns Escherichia coli IFO 12734. Described as above. As to conditions: IFO12734, read-out: Antimicrobial spectrum MIC. As for the experimental part: as §1
In test [9] the test system is Staphylococcus aureus JCM 2874. Described as above. To be noted: JCM2874, read-out: Antimicrobial spectrum MIC. As for the experimental part:
as §1

Test [10] has as its system Bacillus subtilis JCM 2499. The description is as above. As to conditions: JCM2499, read-out: Antimicrobial spectrum MIC. The procedure: as §1
The test system of test [11] is Haemophilus influenzae IID 984. The test is described as above. As to conditions: IID984, read-out: Antimicrobial spectrum MIC. As for the experimental part: as §1
In test [12] the test system is Staphylococcus aureus IID 803(Smith). The description is as above. To be noted: IID803, read-out: Antimicrobial spectrum MIC. As for the experimental part: as §1
In test [13] the test system is Branhamella catarrhalis IID 5233. The description is as above. To be noted: Moraxella catarrhalis, IID5233, read-out: Antimicrobial spectrum MIC. As for the experimental part: as §1
In test [14] the test system is Streptococcus pneumoniae IID 553. Described as above. As to conditions: IID553, read-out: Antimicrobial spectrum MIC. As for the experimental part:
as §1

The subject of test [15] is Staphylococcus aureus Clin-211(MRSA). The description is as above. To be noted: read-out: Antimicrobial spectrum MIC. As for the experimental part: as §1
For test [16], the system named is Propionibacterium acnes JCM 6425. The experiment in a line: in vitro antibacterial activity on anaerobic bacteria (MIC). To be noted: Cutibacterium acnes, JCM6425; Propionibacterium acnes JCM 6425, anaerobic; read-out: Antimicrobial spectrum MIC. As for the experimental part: as §1
Test [17] has as its system Bacteroides fragilis GAI 0675. The test is described as above. To be noted: GAI0675; Bacteroides fragilis GAI 0675, anaerobic; read-out: Antimicrobial spectrum MIC. As for the experimental part: as §1
Test [18] concerns Bacteroides thetaiotaomicron ATCC 29741. The test is described as above. As to conditions: Bacteroides thetaiotaomicron, ATCC29741, read-out: Antimicrobial spectrum MIC. As for the experimental part: as §1

As for `C[C@H]1COc2c(N3CCN(C)CC3)c(F)cc3c(=O)c(C(=O)O)cn1c23` [Levofloxacin, reference compound], the MIC in [1] was determined as 0.5 µg/mL (≈ 1.38 µM); in test [2], 0.5 µg/mL (≈ 1.38 µM); in [3], 1 µg/mL (≈ 2.77 µM); in test [4], 0.008 µg/mL (≈ 0.0221 µM); in test [5], 0.125 µg/mL (≈ 0.346 µM); in [6], 0.25 µg/mL (≈ 0.692 µM). For the same compound, the MIC in [7] was 1 µg/mL (≈ 2.77 µM); in test [8], 0.031 µg/mL (≈ 0.0858 µM); in test [9], 0.25 µg/mL (≈ 0.692 µM); in [10], 0.031 µg/mL (≈ 0.0858 µM); in test [11], 0.016 µg/mL (≈ 0.0443 µM); in [12], 0.125 µg/mL (≈ 0.346 µM). Moreover, the MIC was 0.031 µg/mL (≈ 0.0858 µM) in [13]; 0.5 µg/mL (≈ 1.38 µM) in test [14]; 4 µg/mL (≈ 11.1 µM) in test [15]; 0.25 µg/mL (≈ 0.692 µM) in test [16]; 0.5 µg/mL (≈ 1.38 µM) in test [17]; 4 µg/mL (≈ 11.1 µM) in test [18].

For the origin of these results see patent publication US7223773B2, “4-oxoquinolizine antibacterial agent having 2-pyridone skeleton as partial structure” (Salo Pharmaceutical Co., Ltd., priority 2001, dated 2007).
